“And” between values parts separate entries of the source, which are not always exact repeats. Identical values can stand only once.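 Exposure lasted 48 hours, with cells grown in 96-well plates and compounds tested at five concentrations. Here, GI50 denotes the concentration required for 50% inhibition of growth. At the TGI there is no net growth.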
Assays:
Assay in all cases: growth of human tumour cells (NCI), 48 h; in the data active means GI50 below about 0.43 µM; inactive means the rest
[1] = test system: A549 NSCLC
[2] = test system: ACHN renal
[3] = test system: K-562 leukemia
[4] = test system: OVCAR-4 ovarian
[5] = test system: OVCAR-8 ovarian
[6] = test system: RPMI-8226 leukemia
[7] = test system: SK-MEL-5 melanoma
[8] = test system: SK-OV-3 ovarian
[9] = test system: SNB-19 CNS
[10] = test system: SNB-75 CNS
[11] = test system: BT-549 breast

CC(C)CCNC(=O)c1ccc(CNC(=O)/C=C/c2ccc(OCc3ccccc3)cc2)cc1
> 100 µM: TGI [1] | TGI [2] | TGI [3] | TGI [4] | TGI [5] | TGI [6] | TGI [7] | TGI [8] | TGI [9] | TGI [10]

CCN(CCCN(CC)C(=O)N[C@@H](Cc1ccccc1)C(=O)NC)C(=O)N[C@@H](Cc1ccccc1)C(=O)NC
> 100 µM: TGI [1] | TGI [2] | TGI [11] | TGI [4] | TGI [5] | TGI [7] | TGI [8] | TGI [9]

O=C(O[C@H](/C=C/c1ccccc1)P1(=O)N(Cc2ccccc2)[C@@H]2CCCC[C@H]2N1Cc1ccccc1)c1ccccc1
3.88 µM: TGI [7]
6.19 µM: TGI [4]
> 100 µM: TGI [1] | TGI [2] | TGI [11] | TGI [3] | TGI [5] | TGI [8] | TGI [9]
6.39 µM: TGI [6]

O=C1OC[C@@H]2Cc3c([nH]c4ccccc34)[C@@H](c3ccc(O)cc3)N12
> 75.2 µM: TGI [3]
> 74.2 µM: TGI [2]
33.2 µM: TGI [7]
> 100 µM: TGI [9]
> 86.4 µM: TGI [4]
69.4 µM: TGI [10]
> 71.7 µM: TGI [5]
> 80.9 µM: TGI [6]
> 95.1 µM: TGI [8]
75.8 µM: TGI [1]

O=C(OCc1ccccc1)OOC(=O)OCc1ccccc1
> 100 µM: TGI [1] | TGI [2] | TGI [3] | TGI [4] | TGI [6] | TGI [7] | TGI [8] | TGI [9] | TGI [10]

N#Cc1c(OCCF)c2ccccc2n2c1nc1ccccc12
92 µM: TGI [4]
> 100 µM: TGI [1] | TGI [2] | TGI [3] | TGI [5] | TGI [6] | TGI [7] | TGI [8] | TGI [9] | TGI [10]

CC(=O)/C(=C/n1c(=S)sc2ccccc21)C(=O)Nc1ccccc1C
> 100 µM: TGI [1] | TGI [2] | TGI [11] | TGI [4] | TGI [5] | TGI [7] | TGI [8] | TGI [9] | TGI [10]

CN(C)c1ccc(/C(Br)=C2\OC(=O)c3ccccc32)cc1
> 100 µM: TGI [1] | TGI [2] | TGI [3] | TGI [4] | TGI [5] | TGI [7] | TGI [8] | TGI [9] | TGI [10]
71.7 µM: TGI [6]

COc1ccc(CNc2nc3ccc(C(F)(F)F)cc3nc2-c2ccccc2)cc1OC
> 100 µM: TGI [1] | TGI [2] | TGI [5] | TGI [6] | TGI [8] | TGI [9] | TGI [10]

OCc1ccccc1C1CSCSC1
> 100 µM: TGI [1] | TGI [2] | TGI [3] | TGI [4] | TGI [5] | TGI [7] | TGI [8] | TGI [10]

CC1CC(C#N)=C2NCCCCN2C1=O (stereo not drawn)
> 100 µM: TGI [1] | TGI [11] | TGI [3] | TGI [4] | TGI [5] | TGI [6] | TGI [7] | TGI [8] | TGI [9] | TGI [10]

CCOC(=O)C(=O)N1C(C)=C(C(=O)OCC)CC(C(=O)OCC)=C1C
> 100 µM: TGI [1] | TGI [2] | TGI [3] | TGI [4] | TGI [6] | TGI [7] | TGI [8] | TGI [9] | TGI [10]

CN1CN(c2ccccc2)C2(CCN(CCCC3(c4cccs4)OCCO3)CC2)C1=O
> 100 µM: TGI [1] | TGI [2] | TGI [3] | TGI [4] | TGI [5] | TGI [6] | TGI [7] | TGI [8] | TGI [9] | TGI [10]

O=C(CCc1ccc(O)cc1)c1c(O)cc(O)cc1OC1OC(CO)C(O)C(O)C1O (stereo not drawn)
> 100 µM: TGI [1] | TGI [2] | TGI [3] | TGI [4] | TGI [7] | TGI [8] | TGI [10]

Cc1cc(C)c2c(n1)S(=O)(=O)N(CCCN1CCN(c3cccc(C(F)(F)F)c3)CC1)/C(=C(\O)c1ccc(Cl)cc1)C2=O
19.3 µM: TGI [11]
29.5 µM: TGI [5]
13.8 µM: TGI [2]
8.04 µM: TGI [10]
6.22 µM: TGI [7]
> 100 µM: TGI [3]
15.1 µM: TGI [4]
16.6 µM: TGI [9]
20.3 µM: TGI [8]
13.1 µM: TGI [1]

O=C1N[C@@H]2c3c(csc3Br)C(=O)[C@@H]2O1
57.6 µM: TGI [5]
53.4 µM: TGI [3]
85.1 µM: TGI [6]
> 100 µM: TGI [1] | TGI [2] | TGI [11] | TGI [7] | TGI [8] | TGI [9] | TGI [10]

c1ccc(N=c2snc(-c3ccccc3)s2)cc1
> 100 µM: TGI [1] | TGI [2] | TGI [3] | TGI [4] | TGI [5] | TGI [6] | TGI [7] | TGI [8] | TGI [9] | TGI [10]

O=C1NC(=S)NC(=O)C1C(c1ccccc1[N+](=O)[O-])C1C(=O)NC(=S)NC1=O
> 100 µM: TGI [1] | TGI [2] | TGI [11] | TGI [3] | TGI [4] | TGI [5] | TGI [6] | TGI [7] | TGI [9]

CN1C(=O)CN(NC(=O)C2=C(O)c3ccc(Br)cc3S(=O)(=O)N2)C1=S
> 100 µM: TGI [1] | TGI [2] | TGI [11] | TGI [3] | TGI [4] | TGI [5] | TGI [6] | TGI [7] | TGI [8] | TGI [9]

C[C@]12CC/C(=N\O)C=C1CC[C@@H]1[C@@H]2CC[C@]2(C)C(=N/O)/C(=C/c3cccnc3)C[C@@H]12
73.4 µM: TGI [2]
54.3 µM: TGI [11]
> 100 µM: TGI [8] | TGI [9]
27.7 µM: TGI [3]
80.3 µM: TGI [5]
8.95 µM: TGI [6]
65.3 µM: TGI [4]
59.8 µM: TGI [1]

CCn1c(=O)c2c3cc(O)ccc3oc2c2ccc(O)cc21
66.1 µM: TGI [2]
86.9 µM: TGI [1]
76.7 µM: TGI [11]
> 100 µM: TGI [3] | TGI [4] | TGI [5] | TGI [7] | TGI [8] | TGI [9] | TGI [10]

COc1cc([C@@H]2c3cc4c(cc3C[C@H]3COC(=O)[C@@H]32)OCO4)cc(OC)c1OC
6.57 µM: TGI [6]
> 7.93 µM: TGI [7] | TGI [9]
0.324 µM: TGI [5]
inactive: GI50 [4] 21.8 µM
21.9 µM: TGI [3]
active: GI50 [1] 0.00375 µM | GI50 [3] 0.00404 µM | GI50 [5] 0.00407 µM | GI50 [6] 0.00382 µM and 0.01 µM | GI50 [7] 0.00397 µM | GI50 [8] 0.00431 µM | GI50 [9] 0.00666 µM | GI50 [10] 0.0042 µM
> 13.3 µM: TGI [10]
> 50 µM: TGI [1] | TGI [4] | TGI [8]

CCOC(=O)C1CC(O)C(=O)N1C (stereo not drawn)
> 100 µM: TGI [1] | TGI [2] | TGI [11] | TGI [4] | TGI [6] | TGI [7] | TGI [8] | TGI [9]

Cc1ccc(C2=Nc3c(c(C)nn3-c3ccccc3)N=C(C(=O)O)C2)cc1
> 10 µM: TGI [1] | TGI [2] | TGI [11] | TGI [3] | TGI [4] | TGI [5] | TGI [7] | TGI [8] | TGI [9] | TGI [10]

CC1=CC(=O)N(n2c(C)n[nH]c2=O)C1=O
> 100 µM: TGI [1] | TGI [2] | TGI [11] | TGI [3] | TGI [4] | TGI [5] | TGI [6] | TGI [7] | TGI [8] | TGI [9]

CC(=O)Nc1ccc(Cl)c(Cl)c1
> 100 µM: TGI [1] | TGI [2] | TGI [3] | TGI [5] | TGI [6] | TGI [8] | TGI [9] | TGI [10]

Cc1cccc(C[C@@]2(SCc3ccccc3)C(C)(C)[C@@H]3CC[C@@]2(C)C3)n1
51.1 µM: TGI [1]
28.8 µM: TGI [2]
30.5 µM: TGI [6]
30 µM: TGI [5]
42.6 µM: TGI [11]
33.1 µM: TGI [9]
34.4 µM: TGI [10]
29.4 µM: TGI [7]
51.4 µM: TGI [8]
28.9 µM: TGI [3]

CC1=C2c3ccccc3N(C(=O)/C=C/C(=O)O)[C@H]2[C@H]2C(=O)OC(=O)[C@H]2C1
> 10 µM: TGI [1] | TGI [2] | TGI [4] | TGI [5] | TGI [6] | TGI [7] | TGI [8] | TGI [9] | TGI [10]

CC(C)=CC1C(C(=O)O)C1(C)C (stereo not drawn)
> 750 µM: TGI [1] | TGI [3] | TGI [4] | TGI [5] | TGI [6] | TGI [7] | TGI [8] | TGI [9] | TGI [10]

O=C1C(Cl)N(c2ccccc2)C1c1c[nH]c2ccccc12 (stereo not drawn)
> 100 µM: TGI [1] | TGI [3] | TGI [4] | TGI [5] | TGI [6] | TGI [7] | TGI [8] | TGI [9] | TGI [10]

Cc1cc2cccc(Cl)c2nc1C(=O)c1ccccc1
56.8 µM: TGI [10]
> 100 µM: TGI [1] | TGI [2] | TGI [3] | TGI [4] | TGI [5] | TGI [6] | TGI [7] | TGI [9]

COC(c1ccc(C(C)(C)C)cc1)(c1ccc(C(C)(C)C)cc1)c1cc(C(O)(c2cc(C(OC)(c3ccc(C(C)(C)C)cc3)c3ccc(C(C)(C)C)cc3)c(C)cc2C)c2cc(C(OC)(c3ccc(C(C)(C)C)cc3)c3ccc(C(C)(C)C)cc3)c(C)cc2C)c(C)cc1C
> 100 µM: TGI [1] | TGI [11] | TGI [3] | TGI [4] | TGI [5] | TGI [7] | TGI [8] | TGI [10]

— PubChem BioAssay (NCI)
